Reference: patent publication US5945508A, “Substance P treatment for immunostimulation” (priority 1997, dated 1999)
Read-outs that look alike come from different tables or passages of the source.

Columns and labels:
[1] = system: lymphocyte subpopulations; experiment: Flow cytometric analyses (FACS); format: in vivo, C57B16 mice
Description: (§1) At 24 hours after the last exposure, the animals were sacrificed and the effects of exposure on the immune system examined. Immune organs (spleen, thymus, blood, lymph nodes and bone marrow) were recovered and analyzed for effects on organ weight, total cell numbers, immune cell populations (by differentials), and lymphocyte subpopulations (by flow cytometry). Assays were also performed to examine the effects of exposure on immune function. […] Similar effects on immune cell subpopulations were also observed in lymph nodes. In the thymus it appeared that the immature CD4^+ CD8^+ cells were differentially lost due to exposure. […] However, these effects are prevented or ameliorated by treatment of the animals with Substance P.
One- and two-color FACS analyses are performed using a Becton-Dickinson FACStar Plus flow cytometer. Cells are stained with the indicated monoclonal antibodies according to standard procedures (Harris et al., id). Cells alone and cells reacted with conjugated isotype control, irrelevant mAbs are used as controls. Data is presented as the percentage of cells staining positive for each individual mAb.

[2] = system: LP-BM5 murine leukemia retrovirus; experiment: Spleen changes and total cell numbers, LP-BM5 mouse AIDS model; format: in vivo, C57BL6 mice
Description: (§2) C57BL6 mice, average weight of 25-30 grams, were infected with the LP-BM5 murine leukemia retrovirus to simulate the human AIDS virus. […] The mice were divided into two groups; LP-BM5 virus only and LP-BM5 virus+substance P aerosol therapy at 1 μM concentration. The mice were killed at 4 and 8 weeks postinoculation.

Spleen T Cell = experiment: Mitogenesis of spleen T cells, LP-BM5 mouse AIDS model; format: in vivo, C57BL6 mice
Description: as §2
The proliferation of splenic B and T cells induced by mitogens was determined by incorporation of radioactive thymidine. Splenocytes in 0.1 ml of cell culture medium (1×10 ^7 cells/ml) were cultured in 96-well flat-bottom cultured plates with ConA and lipopolysaccharide, 5 micrograms/ml). […] After 4 hours for radioactive thymidine uptake, the cells were harvested by a cell sample harvester. Radioactivity was determined by a liquid scintillation counter (Tri-Carb, 2200CA). The T and B cell mitogenesis values were recorded as counts per min in 1×10^7 cells/ml.

immune system organs = experiment: Organ weight and total cell recovery; format: in vivo, C57B16 mice; parameters: Spleen Cell Number / Thymus Cell Number / LN Cell Number / BM Cell Number: scale not given here; Spleen Weight / Thymus Weight: unit not given here
Description: as §1
For each of the immune system organs (spleen, lymph nodes and thymus) the wet weight is determined after removal using a microbalance. After processing of the organs into single cell suspensions the cell numbers and viabilities are determined using trypan blue staining. Histochemical differentials are performed at this time. Cell numbers and viabilities are again determined after centrifugation of the cell suspensions through density gradients to obtain mononuclear cells.

[3] = system: murine melanoma B16 cancer cells; conditions: 1×10^5 B16 cells, mean (SEM)
Description: The mice were infected with 1×10^5 murine melanoma B16 cancer cells by tail vein injection. […] The second group of mice was treated with the same SP dose starting at one week post-injection for seven days. Survival was assessed to determine the effect of SP aerosol therapy in prolonging life when mice are challenged with a massive cancer challenge.

[4] = JP-8 1000 mg/m^3 + SP, nSP (1 nM), CP or RP

For Substance P [SP], the “BM CD3 positive cells” value ([1]; JP-8 250 mg/m^3 + SP) was 13%, the “BM CD4 positive cells” value ([1]; JP-8 250 mg/m^3 + SP) was 10% and the “BM CD8 positive cells” value ([1]; JP-8 250 mg/m^3 + SP) was 3%. For the same substance, the “BM CD45 positive cells” value ([1]; JP-8 250 mg/m^3 + SP) was 48%, the “BM MAC1 positive cells” value ([1]; JP-8 250 mg/m^3 + SP) was 10% and the “LN CD3 positive cells” value ([1]; JP-8 250 mg/m^3 + SP) was 85%. For the same substance, the “LN CD4 positive cells” value ([1]; JP-8 250 mg/m^3 + SP) was 48%, the “LN CD8 positive cells” value ([1]; JP-8 250 mg/m^3 + SP) was 12% and the “LN CD45 positive cells” value ([1]; JP-8 250 mg/m^3 + SP) was 13%. For the same substance, the “LN MAC1 positive cells” value ([1]; JP-8 250 mg/m^3 + SP) was 1%, the “PBL CD3 positive cells” value ([1]; JP-8 250 mg/m^3 + SP) was 59% and the “PBL CD4 positive cells” value ([1]; JP-8 250 mg/m^3 + SP) was 15%. The “PBL CD8 positive cells” value ([1]; JP-8 250 mg/m^3 + SP) was 6%, the “PBL CD45 positive cells” value ([1]; JP-8 250 mg/m^3 + SP) was 16% and the “PBL MAC1 positive cells” value ([1]; JP-8 250 mg/m^3 + SP) was 1%. For the same substance, the “Spleen CD3 positive cells” value ([1]; JP-8 250 mg/m^3 + SP) was 62%, the “Spleen CD4 positive cells” value ([1]; JP-8 250 mg/m^3 + SP) was 27% and the “Spleen CD8 positive cells” value ([1]; JP-8 250 mg/m^3 + SP) was 3%. The “Spleen CD45 positive cells” value ([1]; JP-8 250 mg/m^3 + SP) was 21%, the “Spleen MAC1 positive cells” value ([1]; JP-8 250 mg/m^3 + SP) was 1% and the “Thymus CD3 positive cells” value ([1]; JP-8 250 mg/m^3 + SP) was 24%. For the same substance, the “Thymus DN cells” value ([1]; JP-8 250 mg/m^3 + SP) was 5%, the “Thymus DP cells” value ([1]; JP-8 250 mg/m^3 + SP) was 68% and the “Thymus SP4 cells” value ([1]; JP-8 250 mg/m^3 + SP) was 22%. For the same substance, the “Thymus SP8 cells” value ([1]; JP-8 250 mg/m^3 + SP) was 5%, the “BM CD3 positive cells” value [1, 4] was 14% and the “BM CD4 positive cells” value [1, 4] was 9%. The “BM CD8 positive cells” value [1, 4] was 2%, the “BM CD45 positive cells” value [1, 4] was 31% and the “BM MAC1 positive cells” value [1, 4] was 26%. For the same substance, the “LN CD3 positive cells” value [1, 4] was 86%, the “LN CD4 positive cells” value [1, 4] was 29% and the “LN CD8 positive cells” value [1, 4] was 11%. The “LN CD45 positive cells” value [1, 4] was 22%, the “LN MAC1 positive cells” value [1, 4] was 0% and the “PBL CD3 positive cells” value [1, 4] was 61%. The “PBL CD4 positive cells” value [1, 4] was 23%, the “PBL CD8 positive cells” value [1, 4] was 10% and the “PBL CD45 positive cells” value [1, 4] was 22%. The “PBL MAC1 positive cells” value [1, 4] was 3%, the “Spleen CD3 positive cells” value [1, 4] was 34% and the “Spleen CD4 positive cells” value [1, 4] was 18%. The “Spleen CD8 positive cells” value [1, 4] was 10%, the “Spleen CD45 positive cells” value [1, 4] was 20% and the “Spleen MAC1 positive cells” value [1, 4] was 5%. For the same substance, the “Thymus CD3 positive cells” value [1, 4] was 20%, the “Thymus DN cells” value [1, 4] was 10% and the “Thymus DP cells” value [1, 4] was 65%. For the same substance, the “Thymus SP4 cells” value [1, 4] was 16%, the “Thymus SP8 cells” value [1, 4] was 6% and the “BM CD3 positive cells” value ([1]; JP-8 2500 mg/m^3 + SP) was 6%. The “BM CD4 positive cells” value ([1]; JP-8 2500 mg/m^3 + SP) was 3%, the “BM CD8 positive cells” value ([1]; JP-8 2500 mg/m^3 + SP) was 6% and the “BM CD45 positive cells” value ([1]; JP-8 2500 mg/m^3 + SP) was 24%. For the same substance, the “BM MAC1 positive cells” value ([1]; JP-8 2500 mg/m^3 + SP) was 34%, the “Spleen CD3 positive cells” value ([1]; JP-8 2500 mg/m^3 + SP) was 38% and the “Spleen CD4 positive cells” value ([1]; JP-8 2500 mg/m^3 + SP) was 26%. For the same substance, the “Spleen CD8 positive cells” value ([1]; JP-8 2500 mg/m^3 + SP) was 14%, the “Spleen CD45 positive cells” value ([1]; JP-8 2500 mg/m^3 + SP) was 31% and the “Spleen MAC1 positive cells” value ([1]; JP-8 2500 mg/m^3 + SP) was 3%. The “Thymus CD3 positive cells” value ([1]; JP-8 2500 mg/m^3 + SP) was 16%, the “Thymus DN cells” value ([1]; JP-8 2500 mg/m^3 + SP) was 19% and the “Thymus DP cells” value ([1]; JP-8 2500 mg/m^3 + SP) was 64%. The “Thymus SP4 cells” value ([1]; JP-8 2500 mg/m^3 + SP) was 15%, the “Thymus SP8 cells” value ([1]; JP-8 2500 mg/m^3 + SP) was 5% and the “BM CD3 positive cells” value ([1]; dose 0 (no JP-8) + SP or CP) was 12%. For the same substance, the “BM CD4 positive cells” value ([1]; dose 0 (no JP-8) + SP or CP) was 11%, the “BM CD8 positive cells” value ([1]; dose 0 (no JP-8) + SP or CP) was 1% and the “BM CD45 positive cells” value ([1]; dose 0 (no JP-8) + SP or CP) was 48%. The “Spleen CD3 positive cells” value ([1]; dose 0 (no JP-8) + SP or CP) was 42%, the “Spleen CD4 positive cells” value ([1]; dose 0 (no JP-8) + SP or CP) was 26% and the “Spleen CD8 positive cells” value ([1]; dose 0 (no JP-8) + SP or CP) was 11%. The “Spleen CD45 positive cells” value ([1]; dose 0 (no JP-8) + SP or CP) was 23%, the “Spleen MAC1 positive cells” value ([1]; dose 0 (no JP-8) + SP or CP) was 1% and the “Thymus CD3 positive cells” value ([1]; dose 0 (no JP-8) + SP or CP) was 10%. For the same substance, the “Thymus DN cells” value ([1]; dose 0 (no JP-8) + SP or CP) was 7%, the “Thymus DP cells” value ([1]; dose 0 (no JP-8) + SP or CP) was 84% and the “Thymus SP4 cells” value ([1]; dose 0 (no JP-8) + SP or CP) was 6%. The “Thymus SP8 cells” value ([1]; dose 0 (no JP-8) + SP or CP) was 2%, the “total cell numbers (spleen) versus LP-BM5 group” value ([2]; 4 weeks after LP-BM5 infection, SP aerosol 1 μM) was “not accompanied by an increase in total cell numbers” and the “changes in the mouse spleens” value ([2]; LP-BM5 mouse model, substance P aerosol therapy) was “significant changes in the mouse spleens”. For the same substance, the “Spleen T Cell Mitogenesis” value (Spleen T Cell; 4 weeks after LP-BM5 infection, SP aerosol 1 μM 3 days/week, 25 Hours in Culture) was 2963 (56) counts per min, the “Spleen T Cell Mitogenesis” value (Spleen T Cell; 4 weeks after LP-BM5 infection, SP aerosol 1 μM 3 days/week, 48 Hours in Culture) was 2769 (23) counts per min and the “Spleen T Cell Mitogenesis” value (Spleen T Cell; 4 weeks after LP-BM5 infection, SP aerosol 1 μM 3 days/week, 72 Hours in Culture) was 4362 (69) counts per min. For the same substance, the “Spleen T Cell Mitogenesis” value (Spleen T Cell; 8 weeks post-infection with LP-BM5, SP aerosol 1 μM, 72 hours in culture) was 3127 (77) counts per min, the “BM Cell Number” value (immune system organs; JP-8 250 mg/m^3 + SP) was 23 and the “LN Cell Number” value (immune system organs; JP-8 250 mg/m^3 + SP) was 10.8. For the same substance, the “Spleen Cell Number” value (immune system organs; JP-8 250 mg/m^3 + SP) was 40, the “Spleen Weight” value (immune system organs; JP-8 250 mg/m^3 + SP) was 0.16 and the “Thymus Cell Number” value (immune system organs; JP-8 250 mg/m^3 + SP) was 70. For the same substance, the “Thymus Weight” value (immune system organs; JP-8 250 mg/m^3 + SP) was 0.06, the “BM Cell Number” value (immune system organs; [4]) was 21 and the “LN Cell Number” value (immune system organs; [4]) was 5.0. The “Spleen Cell Number” value (immune system organs; [4]) was 72, the “Spleen Weight” value (immune system organs; [4]) was 0.14 and the “Thymus Cell Number” value (immune system organs; [4]) was 78. The “Thymus Weight” value (immune system organs; [4]) was 0.11, the “BM Cell Number” value (immune system organs; JP-8 2500 mg/m^3 + SP) was 19 and the “LN Cell Number” value (immune system organs; JP-8 2500 mg/m^3 + SP) was 5.0. For the same substance, the “Spleen Cell Number” value (immune system organs; JP-8 2500 mg/m^3 + SP) was 87, the “Spleen Weight” value (immune system organs; JP-8 2500 mg/m^3 + SP) was 0.10 and the “Thymus Cell Number” value (immune system organs; JP-8 2500 mg/m^3 + SP) was 96. For the same substance, the “Thymus Weight” value (immune system organs; JP-8 2500 mg/m^3 + SP) was 0.08, the “reversal of effects of JP-8 exposure on the immune system” value (immune system organs; Substance P at both 1 uM and 1 nM doses) was “significantly reversed” and the “BM Cell Number” value (immune system organs; dose 0 (no JP-8) + SP or CP) was 9. For the same substance, the “Spleen Cell Number” value (immune system organs; dose 0 (no JP-8) + SP or CP) was 30, the “Spleen Weight” value (immune system organs; dose 0 (no JP-8) + SP or CP) was 0.10 and the “Thymus Cell Number” value (immune system organs; dose 0 (no JP-8) + SP or CP) was 18. The “Thymus Weight” value (immune system organs; dose 0 (no JP-8) + SP or CP) was 0.04, the “Days alive after B16 cells” value ([3]; 1 μM SP aerosol 15 min/day 7 days starting immediately) was 31.5 (3.8) Days and the “Days alive after B16 cells” value ([3]; SP aerosol 7 days starting one week after B16 cells) was 26.0 (2.0) Days.
